{"source": "patent US20210292347A1", "about": "“DIHETEROCYCLIC TRIAZINONE NUCLEOSIDE ANALOGS AND THEIR USE FOR MEDICATION” (priority 2020, published 2021)", "system": "mice sarcoma S180", "experiment": "Growth inhibition of S180 sarcoma in mice", "format": "in vivo, Kunming healthy mice", "details": "for in-vivo anti-tumor efficacy, statistical significance (in words): S180 sarcoma in mice, doses and routes of Table 3", "key": {"[1]": {"details": "Mus musculus, S-180, mice, ip, read-out: Inhibition rate (%) S180 sarcoma"}, "[2]": {"details": "Mus musculus, S-180, mice, iv, read-out: Inhibition rate (%) S180 sarcoma"}, "[3]": {"details": "Mus musculus, S-180, mice, ip, 400 mg/kg, read-out: Inhibition rate (%) S180 sarcoma"}}, "data": [{"smiles": "CCCc1nn(CC(N)=O)c2c(=O)n(C3OC(CO)C(O)C3O)nnc12", "note": "(stereo not drawn) [Example 49, 2-(3-(3,4-dihydroxy-5-(hydroxymethyl)tetrahydrofuran-2-yl)-4-oxo-7-propyl-3H-pyrazolo [4,3-d][1,2,3]triazin-5(4H)-yl)acetamide]", "values": [{"measurement": "inhibition in vivo at 100 mg/kg", "setting": "[1]", "value": "< 40", "unit": "%"}, {"measurement": "in-vivo anti-tumor efficacy, statistical significance (in words)", "value": "statistically significant"}]}, {"smiles": "NC(=O)Cn1nc(N)c2nnn(C3OC(CO)C(O)C3O)c(=O)c21", "note": "(stereo not drawn) [Example 50, 2-(7-amino-3-(3,4-dihydroxy-5-(hydroxymethyl)tetrahydrofuran-2-yl)-4-oxo-3H-pyrazolo[4,3-d][1,2,3]triazin-5(4H)-yl)acetamide]", "values": [{"measurement": "inhibition in vivo at 15 mg/kg", "setting": "[2]", "value": "< 40", "unit": "%"}, {"measurement": "in-vivo anti-tumor efficacy, statistical significance (in words)", "value": "statistically significant"}]}, {"smiles": "NC(=O)Cn1nc([N+](=O)[O-])c2nnn(C3OC(CO)C(O)C3O)c(=O)c21", "note": "(stereo not drawn) [Example 54, 2-(3-(3,4-dihydroxy-5-(hydroxymethyl)tetrahydrofuran-2-yl)-7-nitro-4-oxo-3H-pyrazolo [4,3-d][1,2,3]triazin-5(4H)-yl)acetamide]", "values": [{"measurement": "inhibition in vivo at 150 mg/kg", "setting": "Mus musculus, S-180, mice, ip, 150 mg/kg, read-out: Inhibition rate (%) S180 sarcoma", "value": "< 40", "unit": "%"}, {"measurement": "in-vivo anti-tumor efficacy, statistical significance (in words)", "value": "statistically significant"}]}, {"smiles": "CCCc1nn(C(N)=O)c2c(=O)n(C3OC(CO)C(O)C3O)nnc12", "note": "(stereo not drawn) [Example 55, 3-(3,4-dihydroxy-5-(hydroxymethyl)tetrahydrofuran-2-yl)-4-oxo-7-propyl-3H-pyrazolo [4,3-d][1,2,3]triazine-5(4H)-carboxamide]", "values": [{"measurement": "inhibition in vivo at 100 mg/kg", "setting": "[1]", "value": "< 40", "unit": "%"}, {"measurement": "in-vivo anti-tumor efficacy, statistical significance (in words)", "value": "statistically significant"}]}, {"smiles": "NC(=O)n1nc(N)c2nnn(C3OC(CO)C(O)C3O)c(=O)c21", "note": "(stereo not drawn) [Example 56, 7-amino-3-(3,4-dihydroxy-5-(hydroxymethyl)tetrahydrofuran-2-yl)-4-oxo-3H-pyrazolo[4,3-d][1,2,3]triazine-5(4H)-carboxamide]", "values": [{"measurement": "inhibition in vivo at 100 mg/kg", "setting": "[1]", "value": "< 40", "unit": "%"}, {"measurement": "in-vivo anti-tumor efficacy, statistical significance (in words)", "value": "statistically significant"}]}, {"smiles": "N#Cc1nn(C(N)=O)c2c(=O)n(C3OC(CO)C(O)C3O)nnc12", "note": "(stereo not drawn) [Example 58, 7-cyano-3-(3,4-dihydroxy-5-(hydroxymethyl)tetrahydrofuran-2-yl)-4-oxo-3H-pyrazolo[4,3-d][1,2,3]triazine-5(4H)-carboxamide]", "values": [{"measurement": "inhibition in vivo at 100 mg/kg", "setting": "[1]", "value": "< 40", "unit": "%"}, {"measurement": "in-vivo anti-tumor efficacy, statistical significance (in words)", "value": "statistically significant"}]}, {"smiles": "NC(=O)n1nc(N2CCCCC2)c2nnn(C3OC(CO)C(O)C3O)c(=O)c21", "note": "(stereo not drawn) [Example 59, 3-(3,4-dihydroxy-5-(hydroxymethyl)tetrahydrofuran-2-yl)-4-oxo-7-(piperidin-1-yl)-3H-pyrazolo[4,3-d][1,2,3]triazine-5(4H)-carboxamide]", "values": [{"measurement": "inhibition in vivo at 50 mg/kg", "setting": "Mus musculus, S-180, mice, iv, 50 mg/kg, read-out: Inhibition rate (%) S180 sarcoma", "value": "< 20", "unit": "%"}]}, {"smiles": "NC(=O)n1nc([N+](=O)[O-])c2nnn(C3OC(CO)C(O)C3O)c(=O)c21", "note": "(stereo not drawn) [Example 60, 3-(3,4-dihydroxy-5-(hydroxymethyl)tetrahydrofuran-2-yl)-7-nitro-4-oxo-3H-pyrazolo[4,3-d][1,2,3]triazine-5(4H)-carboxamide]", "values": [{"measurement": "inhibition in vivo at 15 mg/kg", "setting": "[2]", "value": "< 40", "unit": "%"}, {"measurement": "in-vivo anti-tumor efficacy, statistical significance (in words)", "value": "statistically significant"}]}, {"smiles": "COc1ccc(C(=O)Nc2nn(C(N)=O)c3c(=O)n(C4OC(CO)C(O)C4O)nnc23)cc1", "note": "(stereo not drawn) [Example 61, 3-(3,4-dihydroxy-5-(hydroxymethyl)tetrahydrofuran-2-yl)-7-(4-methoxybenzamido)-4-oxo-3H-pyrazolo[4,3-d][1,2,3]triazine-5(4H)-carboxamide]", "values": [{"measurement": "inhibition in vivo at 12.5 mg/kg", "setting": "Mus musculus, S-180, mice, iv, 12.5 mg/kg, read-out: Inhibition rate (%) S180 sarcoma", "value": "< 20", "unit": "%"}]}, {"smiles": "CCCc1nn(C(=N)N)c2c(=O)n(C3OC(CO)C(O)C3O)nnc12", "note": "(stereo not drawn) [Example 68, 3-(3,4-dihydroxy-5-(hydroxymethyl)tetrahydrofuran-2-yl)-4-oxo-7-propyl-3H-pyrazolo [4,3-d][1,2,3]triazine-5(4H)-carboximidamide]", "values": [{"measurement": "inhibition in vivo at 20 mg/kg", "setting": "[2]", "value": "< 40", "unit": "%"}, {"measurement": "in-vivo anti-tumor efficacy, statistical significance (in words)", "value": "statistically significant"}]}, {"smiles": "N#Cc1nn(C(=N)N)c2c(=O)n(C3OC(CO)C(O)C3O)nnc12", "note": "(stereo not drawn) [Example 70, 7-cyano-3-(3,4-dihydroxy-5-(hydroxymethyl)tetrahydrofuran-2-yl)-4-oxo-3H-pyrazolo[4,3-d][1,2,3]triazine-5(4H)-carboximidamide]", "values": [{"measurement": "inhibition in vivo at 100 mg/kg", "setting": "[1]", "value": "< 40", "unit": "%"}, {"measurement": "in-vivo anti-tumor efficacy, statistical significance (in words)", "value": "statistically significant"}]}, {"smiles": "N=C(N)n1nc([N+](=O)[O-])c2nnn(C3OC(CO)C(O)C3O)c(=O)c21", "note": "(stereo not drawn) [Example 72, 3-(3,4-dihydroxy-5-(hydroxymethyl)tetrahydrofuran-2-yl)-7-nitro-4-oxo-3H-pyrazolo[4,3-d][1,2,3]triazine-5(4H)-carboximidamide]", "values": [{"measurement": "inhibition in vivo at 25 mg/kg", "setting": "Mus musculus, S-180, mice, iv, 25 mg/kg, read-out: Inhibition rate (%) S180 sarcoma", "value": "< 40", "unit": "%"}, {"measurement": "in-vivo anti-tumor efficacy, statistical significance (in words)", "value": "statistically significant"}]}, {"smiles": "CCOC(=O)c1nn(C(N)=S)c2c(=O)n(C3OC(CO)C(O)C3O)nnc12", "note": "(stereo not drawn) [Example 73, ethyl 5-carbamothioyl-3-(3,4-dihydroxy-5-(hydroxymethyl)tetrahydrofuran-2-yl)-4-oxo-4,5-dihydro-3H-pyrazolo[4,3-d][1,2,3]triazine-7-carboxylate]", "values": [{"measurement": "inhibition in vivo at 200 mg/kg", "setting": "[1]", "value": "< 40", "unit": "%"}, {"measurement": "in-vivo anti-tumor efficacy, statistical significance (in words)", "value": "statistically significant"}]}, {"smiles": "CCCc1nn(C(N)=S)c2c(=O)n(C3OC(CO)C(O)C3O)nnc12", "note": "(stereo not drawn) [Example 74, 3-(3,4-dihydroxy-5-(hydroxymethyl)tetrahydrofuran-2-yl)-4-oxo-7-propyl-3H-pyrazolo[4,3-d][1,2,3]triazine-5(4H)-carbothioamide]", "values": [{"measurement": "inhibition in vivo at 200 mg/kg", "setting": "[1]", "value": "< 40", "unit": "%"}, {"measurement": "in-vivo anti-tumor efficacy, statistical significance (in words)", "value": "statistically significant"}]}, {"smiles": "CN(C)CCC(=O)Nc1nn(C(N)=S)c2c(=O)n(C3OC(CO)C(O)C3O)nnc12", "note": "(stereo not drawn) [Example 76, N-(5-carbamothioyl-3-(3,4-dihydroxy-5-(hydroxymethyl)tetrahydrofuran-2-yl)-4-oxo-4,5-dihydro-3H-pyrazolo[4,3-d][1,2,3]triazin-7-yl)-3-(dimethylamino) propanamide]", "values": [{"measurement": "in-vivo anti-tumor efficacy, statistical significance (in words)", "value": "statistically significant"}, {"measurement": "Inhibition rate (%) S180 sarcoma", "setting": "mice, ip, 400 mg/kg", "value": "++ (++ represent of Inhibition rate % <40)"}]}, {"smiles": "N#Cc1nn(C(N)=S)c2c(=O)n(C3OC(CO)C(O)C3O)nnc12", "note": "(stereo not drawn) [Example 77, 7-cyano-3-(3,4-dihydroxy-5-(hydroxymethyl)tetrahydrofuran-2-yl)-4-oxo-3H-pyrazolo[4,3-d][1,2,3]triazine-5(4H)-carbothioamide]", "values": [{"measurement": "inhibition in vivo at 100 mg/kg", "setting": "[1]", "value": "< 40", "unit": "%"}, {"measurement": "in-vivo anti-tumor efficacy, statistical significance (in words)", "value": "statistically significant"}]}, {"smiles": "CCCc1nn(O)c2c(=O)n(C3CCC(CO)O3)nnc12", "note": "(stereo not drawn) [Example 79, 5-hydroxy-3-(5-(hydroxymethyl)tetrahydrofuran-2-yl)-7-propyl-3H-pyrazolo[4,3-d][1,2,3]triazin-4(5H)-one]", "values": [{"measurement": "inhibition in vivo at 300 mg/kg", "setting": "Mus musculus, S-180, mice, ip, 300 mg/kg, read-out: Inhibition rate (%) S180 sarcoma", "value": "< 20", "unit": "%"}]}, {"smiles": "CCCc1nn(C)c2c(=O)n(C3CCC(CO)O3)nnc12", "note": "(stereo not drawn) [Example 80, 3-(5-(hydroxymethyl)tetrahydrofuran-2-yl)-5-methyl-7-propyl-3H-pyrazolo[4,3-d][1,2,3]triazin-4(5H)-one]", "values": [{"measurement": "inhibition in vivo at 200 mg/kg", "setting": "[1]", "value": "< 20", "unit": "%"}]}, {"smiles": "CCOP(=O)(OCC)C(Nc1nn(CO)c2c(=O)n(C3CCC(CO)O3)nnc12)C(=O)O", "note": "(stereo not drawn) [Example 81, 2-(diethoxyphosphoryl)-2-((5-(hydroxymethyl)-3-(5-(hydroxymethyl)tetrahydrofuran-2-yl)-4-oxo-4,5-dihydro-3H-pyrazolo[4,3-d][1,2,3]triazin-7-yl)amino)acetic acid]", "values": [{"measurement": "inhibition in vivo at 100 mg/kg", "setting": "[1]", "value": "< 40", "unit": "%"}, {"measurement": "in-vivo anti-tumor efficacy, statistical significance (in words)", "value": "statistically significant"}]}, {"smiles": "CCOP(=O)(OCC)C(C(=O)O)n1nc(N)c2nnn(C3CCC(CO)O3)c(=O)c21", "note": "(stereo not drawn) [Example 83, 2-(7-amino-3-(5-(hydroxymethyl)tetrahydrofuran-2-yl)-4-oxo-3H-pyrazolo[4,3-d][1,2,3]triazin-5(4H)-yl)-2-(diethoxyphosphoryl)acetic acid]", "values": [{"measurement": "inhibition in vivo at 20 mg/kg", "setting": "[2]", "value": "< 20", "unit": "%"}]}, {"smiles": "CCCc1nn(C(=N)N)c2c(=O)n(C3CCC(CO)O3)nnc12", "note": "(stereo not drawn) [Example 85, 3-(5-(hydroxymethyl)tetrahydrofuran-2-yl)-4-oxo-7-propyl-3H-pyrazolo[4,3-d][1,2,3]triazine-5(4H)-carboximidamide]", "values": [{"measurement": "inhibition in vivo at 400 mg/kg", "setting": "[3]", "value": "< 20", "unit": "%"}]}, {"smiles": "CCCc1nn(C(N)=S)c2c(=O)n(C3CCC(CO)O3)nnc12", "note": "(stereo not drawn) [Example 86, 3-(5-(hydroxymethyl)tetrahydrofuran-2-yl)-4-oxo-7-propyl-3H-pyrazolo[4,3-d][1,2,3]triazine-5(4H)-carbothioamide]", "values": [{"measurement": "inhibition in vivo at 200 mg/kg", "setting": "[1]", "value": "< 20", "unit": "%"}]}, {"smiles": "CCCc1nn(O)c2c(=O)n(C3CSC(CO)O3)nnc12", "note": "(stereo not drawn) [Example 88, 5-hydroxy-3-(2-(hydroxymethyl)-1,3-oxathiolan-5-yl)-7-propyl-3H-pyrazolo[4,3-d][1,2,3]triazin-4(5H)-one]", "values": [{"measurement": "inhibition in vivo at 400 mg/kg", "setting": "[3]", "value": "< 40", "unit": "%"}, {"measurement": "in-vivo anti-tumor efficacy, statistical significance (in words)", "value": "statistically significant"}]}, {"smiles": "CCOP(=O)(OCC)C(Nc1nn(C)c2c(=O)n(C3CSC(CO)O3)nnc12)C(=O)O", "note": "(stereo not drawn) [Example 90, 2-(diethoxyphosphoryl)-2-((3-(2-(hydroxymethyl)-1,3-oxathiolan-5-yl)-5-methyl-4-oxo-4,5-dihydro-3H-pyrazolo[4,3-d][1,2,3]triazin-7-yl)amino)acetic acid]", "values": [{"measurement": "inhibition in vivo at 30 mg/kg", "setting": "Mus musculus, S-180, mice, iv, 30 mg/kg, read-out: Inhibition rate (%) S180 sarcoma", "value": "< 20", "unit": "%"}]}, {"smiles": "CCCc1nn(C)c2c(=O)n(C3CSC(CO)O3)nnc12", "note": "(stereo not drawn) [Example 91, 3-(2-(hydroxymethyl)-1,3-oxathiolan-5-yl)-5-methyl-7-propyl-3H-pyrazolo[4,3-d][1,2,3]triazin-4(5H)-one]", "values": [{"measurement": "inhibition in vivo at 200 mg/kg", "setting": "[1]", "value": "< 40", "unit": "%"}, {"measurement": "in-vivo anti-tumor efficacy, statistical significance (in words)", "value": "statistically significant"}]}]}
